Test results: patent publication US10828300B2, “Substituted 2,4-diaminopyrimidines as kinase inhibitors” (Celgene CAR LLC, priority 2008, dated 2020)
“Also recorded” adds a separate entry of the source.

Tests used:
[1] = target: T1, BTK (Homo sapiens (Human), UniProt Q06187); experiment: Washout experiment with Ramos cells (PLCγ2 phosphorylation); type: cell-based; conditions: Ramos washout assay, 100 nM compound for 1 hour
Procedure: Washout Experiment with Ramos Cells
Ramos cells were serum starved for one hour in RPMI media +1% glutamine at 37° C. After starvation, Ramos cells were treated with 100 nM compound diluted in serum free RPMI media for 1 hour. After compound treatment, the media was removed and cells were washed with compound-free media. Subsequently, Ramos cells were washed every 2 hours and resuspended in fresh compound-free media. Cells were collected at specified timepoints, treated with 1 ug anti-human IgM (Southern Biotech cat #2022-01) for 10 minutes on ice to induce BCR signaling and then washed in PBS. Ramos cells were then lysed in Cell Extraction Buffer (Invitrogen FNN0011) supplemented with Roche complete protease inhibitor tablets (Roche 11697498001) and phosphatase inhibitors (Roche 04 906 837 001) and 18 ug total protein lysate was loaded in each lane. Inhibition of BTK kinase activity was assayed by measuring its substrate (PLCγ2) phosphorylation by western blot with phospho-specific antibodies from Cell Signaling Technologies cat#3871. The results of this experiment with compounds I-2, I-4 and I-7 are depicted in FIGS. 1, 2 and 3.

[2] = target: TEC kinase (Homo sapiens (Human), UniProt P42680); experiment: Mass spectrometry for TEC kinase (tryptic digest); type: binding, Homo sapien; conditions: 3 hrs at 10× excess, peptide GCLLNFLR
Chain of TEC kinase (P42680 whole entry): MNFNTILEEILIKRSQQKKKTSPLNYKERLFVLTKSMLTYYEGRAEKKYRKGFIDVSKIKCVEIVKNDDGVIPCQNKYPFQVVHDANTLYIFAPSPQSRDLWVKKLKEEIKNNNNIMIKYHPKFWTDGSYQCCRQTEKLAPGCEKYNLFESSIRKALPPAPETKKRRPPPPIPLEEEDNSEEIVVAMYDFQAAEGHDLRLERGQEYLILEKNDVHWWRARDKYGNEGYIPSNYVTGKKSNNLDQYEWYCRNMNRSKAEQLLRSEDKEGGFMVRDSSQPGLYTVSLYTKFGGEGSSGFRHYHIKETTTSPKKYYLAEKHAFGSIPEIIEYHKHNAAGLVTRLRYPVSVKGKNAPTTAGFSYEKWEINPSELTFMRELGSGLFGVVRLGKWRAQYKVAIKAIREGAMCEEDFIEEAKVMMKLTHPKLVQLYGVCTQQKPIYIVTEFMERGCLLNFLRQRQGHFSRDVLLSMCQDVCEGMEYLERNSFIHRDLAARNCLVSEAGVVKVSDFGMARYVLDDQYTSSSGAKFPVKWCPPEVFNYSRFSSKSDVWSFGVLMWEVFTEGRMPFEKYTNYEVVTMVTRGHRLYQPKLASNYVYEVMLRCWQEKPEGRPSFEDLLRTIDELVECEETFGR
Procedure: Mass Spectrometry for TEC Kinase (Compound I-2)
(§1) TEC kinase (45 pmols; Invitrogen) was incubated with (I-2) (450 pmols) for 3 hrs at 10× excess prior to tryptic digestion. Iodoacetamide was used as the alkylating agent after compound incubation. […] For tryptic digests a 5 ul aliquot (7.5 pmols) was diluted with 15 ul of 0.1% TFA prior to micro C18 Zip Tipping directly onto the MALDI target using alpha cyano-4-hydroxy cinnamic acid as the matrix (5 mg/ml in 0.1% TFA:Acetonitrile 50:50).
(§2) For tryptic digests the instrument was set in Reflectron mode with a pulsed extraction setting of 2200. Calibration was done using the Laser Biolabs Pep Mix standard ([…], 1296.69, 1672.92, 2093.09, 2465.20). For CID/PSD analysis the peptide was selected using cursors to set ion gate timing and fragmentation occurred at a laser power about 20% higher and He was used as the collision gas for CID. Calibration for fragments was done using the P14R fragmentation calibration for the Curved field Reflectron.
Mass Spectrometry for TEC Kinase (Compound I-4)
as §1, with “(I-4)” for “(I-2)”
as §2, with “1800.” for “2200.”
Mass Spectrometry for TEC Kinase (Compound I-7) […]

[3] = target: Erbb4 kinase domain (Homo sapiens (Human), UniProt Q15303); experiment: Mass spectrometry for ERBB4 (intact protein); type: binding; conditions: 60 minutes at 10-fold excess of compound
Chain of Erbb4 kinase domain (Q15303 718-985): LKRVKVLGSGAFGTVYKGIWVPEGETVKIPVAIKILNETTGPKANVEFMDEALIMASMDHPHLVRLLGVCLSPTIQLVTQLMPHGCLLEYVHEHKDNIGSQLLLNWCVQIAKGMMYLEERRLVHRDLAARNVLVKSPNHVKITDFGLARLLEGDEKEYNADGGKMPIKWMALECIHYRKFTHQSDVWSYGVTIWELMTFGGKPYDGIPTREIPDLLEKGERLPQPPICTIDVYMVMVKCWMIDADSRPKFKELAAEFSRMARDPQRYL
Procedure: Mass Spectrometry for ERBB4
Erbb4 kinase domain (Upstate) was incubated with compound for 60 minutes at 10-fold excess of compound I-4 and I-11 to protein. 1 μl aliquots of the samples (total volume of 4.24 ul) were diluted with 10 μl of 0.1% TFA prior to micro C4 ZipTipping directly onto the MALDI target using Sinapinic acid as the desorption matrix (10 mg/ml in 0.1% TFA:Acetonitrile 50:50). For intact protein mass measurement the instrument was set in Linear mode using a pulsed extraction setting of 16,952 for the myoglobin standard used to calibrate the instrument (Shimadzu Axima TOF^2).
Intact ErbB4 protein occurs at MH+ of 35850 with corresponding sinapinic (matrix) adducts occurring about 200 Da higher. A stochiometric incorporation of the test compound (I-4 and I-11) (Mw of 410 Da) produced a new mass peak which is approximately 410 Da higher (MH+ of 36260).

[4] = target: T1, BTK; experiment: Mass spectrometry for BTK (intact protein, covalent modification); type: binding
Procedure: Mass Spectrometry for BTK
Intact BTK was incubated for 1 hr at a 10× fold excess of I-7 to protein. Aliquots (2 μl) of the samples were diluted with 10 μl of 0.1% TFA prior to micro C4 ZipTipping directly onto the MALDI target using Sinapinic acid as the desorption matrix (10 mg/ml in 0.1% TFA:Acetonitrile 20:80).

[5] = target: T1, BTK; experiment: BTK occupancy from in vitro samples by ELISA (Ramos cells, probe I-215); type: cell-based; conditions: probe I-215 ELISA
Excerpt: Measuring BTK occupancy from in vitro samples by ELISA
In order to determine the amount of free BTK in cell or tissue lysates, an ELISA protocol was employed that utilizes a biotinylated probe compound that binds only to free, unoccupied BTK. The conjugated biotin is captured on a streptavidin-coated ELISA plate and detected with a mouse anti-BTK antibody (Becton Dickinson, Franklin Lakes, N.J., USA) and a secondary goat anti-mouse HRP antibody (Zymed, South San Francisco, Calif., USA).
All samples were prepared with equal concentrations of Biorad lysis buffer (Hercules, Calif., USA), 0.5% bovine serum albumin in PBS with 0.05% Tween-20 to give a final concentration of 1 μM I-215. Samples were incubated in a mixing plate for 1 hr at room temperature while shaking to allow probe compound I-215 to bind to free BTK. After incubation with I-215, samples were added to a washed, streptavidin-coated ELISA plate (Pierce, Rockford, Ill., USA) and incubated for 1 hr at room temperature while shaking. The plate was then washed with PBS containing 0.05% Tween-20 using an automatic plate washer. Anti-BTK antibody was prepared at 1:1000 dilution in 0.5% BSA in PBS (0.05% Tween-20) and added to the ELISA plate. The plate was incubated for 1 hr at room temperature while shaking. The plate was washed as described above and the secondary HRP antibody was prepared at 1:5000 dilution in 0.5% BSA in PBS (0.05% Tween-20). The plate was incubated and washed as described above. TMB was added to the plate, and OD650 was monitored until reaching 1 OD unit. The reaction was then stopped with addition of H2SO4. The plate was analyzed using Gen 5 software, and a 4 Parameter Logistic curve was employed to quantitate samples. Recombinant BTK (Invitrogen, Carlsbad, Calif., USA) was used for the standard curve.
A concentration designated as “A” is greater than 1 nM; a concentration designated as “B” is greater than 10 nM; and a concentration designated as “C” is greater than 50 nM.

[6] = target: T1, BTK; experiment: Washout experiment with I-7 and probe compound I-215 in Ramos cells; type: cell-based; conditions: 0.1 μM for 1 hour, then washout, probe I-215
Procedure: Washout Experiment with I-7 and Probe Compound I-215
Ramos cells were incubated with 0.1 μM I-7 or a reversible BTK inhibitor control compound in serum free media for 1 hour at 37° C. The cells were then washed in compound-free media and lysed 0, 4, 6, or 8 hours after compound removal. Cell lysates were incubated with 1 μM I-215 for 1 hour at room temperature, then overnight at 4° C. with streptavidin-coupled agarose beads. Protein was boiled off the beads and BTK association was assessed by western blot. […] In contrast, with the reversible inhibitor control, 45% of BTK protein is unbound and available to the probe at 0 hours and by 4 hours 100% of BTK protein is unbound and available to bind the probe. All samples were normalized to the DMSO-treated cells harvested at 0 hours.

[7] = target: JAK3 kinase (Homo sapiens (Human), UniProt P52333); experiment: Mass spectrometry for Janus-3 kinase (JAK3), tryptic digest; type: binding, homosapien; conditions: 3 hrs at 10× excess, peptide LVMEYLPSGCLR
Chain of JAK3 kinase (P52333 whole entry): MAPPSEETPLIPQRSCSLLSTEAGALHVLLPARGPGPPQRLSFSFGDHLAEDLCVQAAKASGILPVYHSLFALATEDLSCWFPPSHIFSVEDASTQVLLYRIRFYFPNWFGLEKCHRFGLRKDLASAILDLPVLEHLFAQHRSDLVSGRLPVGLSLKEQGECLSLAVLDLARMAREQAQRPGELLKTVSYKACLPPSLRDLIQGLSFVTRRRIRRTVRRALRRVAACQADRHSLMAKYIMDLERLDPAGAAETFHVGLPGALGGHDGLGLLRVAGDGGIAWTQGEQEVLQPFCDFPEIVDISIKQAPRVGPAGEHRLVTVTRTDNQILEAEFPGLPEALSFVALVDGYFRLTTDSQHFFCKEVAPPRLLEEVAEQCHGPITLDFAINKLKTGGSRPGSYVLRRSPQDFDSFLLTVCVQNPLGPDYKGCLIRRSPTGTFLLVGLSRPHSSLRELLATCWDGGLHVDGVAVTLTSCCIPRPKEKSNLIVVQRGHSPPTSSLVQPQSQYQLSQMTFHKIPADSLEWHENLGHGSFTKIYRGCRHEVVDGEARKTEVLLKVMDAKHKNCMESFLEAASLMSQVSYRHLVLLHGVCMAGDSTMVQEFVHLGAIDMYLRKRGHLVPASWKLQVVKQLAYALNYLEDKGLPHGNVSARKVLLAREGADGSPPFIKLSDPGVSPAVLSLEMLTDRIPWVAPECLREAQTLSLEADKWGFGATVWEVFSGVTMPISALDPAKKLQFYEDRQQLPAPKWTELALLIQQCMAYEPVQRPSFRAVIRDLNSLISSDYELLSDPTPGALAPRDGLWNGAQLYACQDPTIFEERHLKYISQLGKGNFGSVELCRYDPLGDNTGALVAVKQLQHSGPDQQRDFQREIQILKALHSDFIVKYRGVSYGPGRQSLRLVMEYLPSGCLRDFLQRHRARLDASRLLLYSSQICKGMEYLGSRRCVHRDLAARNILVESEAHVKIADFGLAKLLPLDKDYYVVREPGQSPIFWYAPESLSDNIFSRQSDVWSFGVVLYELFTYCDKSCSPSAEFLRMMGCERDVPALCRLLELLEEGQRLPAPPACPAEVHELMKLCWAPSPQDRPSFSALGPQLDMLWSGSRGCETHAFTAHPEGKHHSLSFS
Procedure: Mass Spectrometry for Janus-3 Kinase (JAK3)
JAK3 kinase (33 pmols; Invitrogen) was incubated with (I-7) (327 pmols) for 3 hrs at 10× excess prior to tryptic digestion. Iodoacetamide was used as the alkylating agent after compound incubation. For tryptic digests a 5 ul aliquot (5.5 pmols) was diluted with 15 ul of 0.1% TFA prior to micro C18 Zip Tipping directly onto the MALDI target using alpha cyano-4-hydroxy cinnamic acid as the matrix (5 mg/ml in 0.1% TFA:Acetonitrile 50:50).
as §2

[8] = target: T1, BTK; experiment: BTK Ramos cellular assay (phosphorylation of BTK substrate PLCγ2); type: cell-based; conditions: Ramos cells, anti-IgM stimulated, read-out: BTK Inhibition (BTK Ramos Cellular Inhibition Data)
Procedure: Ramos cells were grown in suspension in T225 flasks, spun down, resuspended in 50 ml serum-free media and incubated for 1 hour. […] Ramos cells were incubated with compound for 1 hour, washed again and resuspended in 100 ul serum-free media. Cells were then stimulated with 1 μg of goat F(ab′)2 Anti-Human IgM and incubated on ice for 10 minutes to activate B cell receptor signaling pathways. After 10 minutes, the cells were washed once with PBS and then lysed on ice with Invitrogen Cell Extraction buffer. 16 μg total protein from lysates were loaded on gel and blots were probed for phosphorylation of the BTK substrate PLCγ2.

[9] = target: ITK (Homo sapiens (Human), UniProt Q08881); experiment: Omnia assay for potency assessment against active forms of ITK kinase; type: biochemical; conditions: [ITK]=10 nM, [ATP]=25 μM, [Y6-Sox]=10 μM; read-out: ITK Inhibition
Chain of ITK (Q08881 whole entry): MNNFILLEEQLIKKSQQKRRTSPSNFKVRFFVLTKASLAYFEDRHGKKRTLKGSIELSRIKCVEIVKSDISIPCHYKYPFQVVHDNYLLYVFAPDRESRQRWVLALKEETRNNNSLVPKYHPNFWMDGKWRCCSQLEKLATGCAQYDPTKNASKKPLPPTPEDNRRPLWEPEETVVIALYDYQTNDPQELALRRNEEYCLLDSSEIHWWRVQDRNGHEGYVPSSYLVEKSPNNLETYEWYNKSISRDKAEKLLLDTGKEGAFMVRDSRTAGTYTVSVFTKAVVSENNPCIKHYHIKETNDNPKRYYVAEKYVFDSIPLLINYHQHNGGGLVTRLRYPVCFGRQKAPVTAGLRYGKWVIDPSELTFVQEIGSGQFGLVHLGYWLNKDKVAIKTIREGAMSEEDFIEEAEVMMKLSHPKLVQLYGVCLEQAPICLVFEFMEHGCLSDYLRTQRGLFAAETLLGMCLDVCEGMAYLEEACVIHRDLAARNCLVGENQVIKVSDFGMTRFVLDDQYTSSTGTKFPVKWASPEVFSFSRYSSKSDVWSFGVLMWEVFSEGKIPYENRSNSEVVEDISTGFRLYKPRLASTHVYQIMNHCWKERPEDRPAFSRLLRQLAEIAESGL

[10] = target: EGFR-WT (Homo sapiens (Human), UniProt P00533); experiment: Omnia assay for potency assessment against EGFR (WT); type: biochemical; conditions: read-out: EGFR Wild Type Inhibition
Chain of EGFR-WT (P00533 25-1210): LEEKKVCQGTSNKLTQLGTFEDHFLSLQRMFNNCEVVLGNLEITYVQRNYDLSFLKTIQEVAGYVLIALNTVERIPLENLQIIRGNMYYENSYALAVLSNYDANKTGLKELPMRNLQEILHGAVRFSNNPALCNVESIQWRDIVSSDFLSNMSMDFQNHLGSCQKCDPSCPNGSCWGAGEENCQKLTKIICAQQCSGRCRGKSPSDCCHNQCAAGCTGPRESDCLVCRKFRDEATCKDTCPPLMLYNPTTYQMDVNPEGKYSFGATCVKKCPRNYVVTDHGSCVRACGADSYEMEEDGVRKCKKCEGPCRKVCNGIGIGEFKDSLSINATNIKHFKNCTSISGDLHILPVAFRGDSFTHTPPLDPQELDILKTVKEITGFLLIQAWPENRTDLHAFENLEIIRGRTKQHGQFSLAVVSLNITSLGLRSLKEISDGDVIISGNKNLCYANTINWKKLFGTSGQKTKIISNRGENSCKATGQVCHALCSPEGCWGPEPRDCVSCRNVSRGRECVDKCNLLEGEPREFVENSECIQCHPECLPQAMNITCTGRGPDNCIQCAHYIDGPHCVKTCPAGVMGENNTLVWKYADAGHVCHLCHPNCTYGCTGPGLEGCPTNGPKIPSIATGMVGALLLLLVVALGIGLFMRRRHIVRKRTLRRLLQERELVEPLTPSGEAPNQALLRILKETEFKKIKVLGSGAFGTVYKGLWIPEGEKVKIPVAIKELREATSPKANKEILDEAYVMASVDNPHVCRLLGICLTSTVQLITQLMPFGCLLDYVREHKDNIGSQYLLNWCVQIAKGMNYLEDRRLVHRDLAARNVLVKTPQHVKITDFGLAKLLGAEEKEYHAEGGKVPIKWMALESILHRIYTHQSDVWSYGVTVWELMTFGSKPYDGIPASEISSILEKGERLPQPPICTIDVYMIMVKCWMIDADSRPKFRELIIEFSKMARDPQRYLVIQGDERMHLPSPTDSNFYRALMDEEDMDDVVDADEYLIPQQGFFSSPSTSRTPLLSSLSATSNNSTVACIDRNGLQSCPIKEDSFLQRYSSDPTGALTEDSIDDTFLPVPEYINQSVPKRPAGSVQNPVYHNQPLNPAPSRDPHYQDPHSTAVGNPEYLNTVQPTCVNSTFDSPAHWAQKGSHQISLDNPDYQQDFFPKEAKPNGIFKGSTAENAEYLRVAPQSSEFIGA

[11] = target: T1, BTK; experiment: Omnia assay protocol for potency assessment against BTK; type: biochemical
Excerpt: Omnia Assay Protocol for Potency Assessment Against BTK

T1 sequence (Q06187 whole entry): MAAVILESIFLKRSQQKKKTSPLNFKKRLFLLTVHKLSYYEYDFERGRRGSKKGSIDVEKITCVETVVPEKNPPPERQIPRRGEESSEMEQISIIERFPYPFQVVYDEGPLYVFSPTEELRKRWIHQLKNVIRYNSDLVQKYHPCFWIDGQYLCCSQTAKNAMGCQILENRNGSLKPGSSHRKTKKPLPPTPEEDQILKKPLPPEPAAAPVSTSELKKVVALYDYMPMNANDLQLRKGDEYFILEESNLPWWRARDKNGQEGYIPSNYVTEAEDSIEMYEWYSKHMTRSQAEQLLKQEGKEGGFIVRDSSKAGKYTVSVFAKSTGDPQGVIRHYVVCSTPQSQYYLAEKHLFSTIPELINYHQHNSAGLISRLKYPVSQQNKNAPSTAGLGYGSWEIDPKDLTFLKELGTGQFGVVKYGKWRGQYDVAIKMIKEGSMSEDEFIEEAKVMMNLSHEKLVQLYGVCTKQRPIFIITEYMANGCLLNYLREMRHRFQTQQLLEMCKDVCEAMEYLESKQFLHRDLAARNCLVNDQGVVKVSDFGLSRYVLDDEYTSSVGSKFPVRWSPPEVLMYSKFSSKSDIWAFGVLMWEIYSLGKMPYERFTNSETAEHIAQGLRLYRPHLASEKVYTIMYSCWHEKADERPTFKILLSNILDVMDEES

BTK Inhibition Type [1]	covalent modification of ErbB4 by mass spectrometry [3]	SMILES	covalent modification of TEC kinase by mass spectrometry [2]	covalent modification of JAK3 by mass spectrometry [7]	further results
irreversible	–	C=CC(=O)Nc1cccc(Nc2ncc(C)c(Nc3cccc(C)c3)n2)c1 [Compound I-2, N-(3-(5-methyl-4-(m-tolylamino)pyrimidin-2-ylamino)phenyl) acrylamide]	covalent modification of TEC kinase at Cys449; also recorded: reaction was complete	–	–
irreversible	covalent modification of ErbB4	Cc1cccc(Nc2nc(Nc3cccc(NC(=O)/C=C/CN(C)C)c3)ncc2F)c1 [Compound I-4, (E)-4-(dimethylamino)-N-(3-(5-fluoro-4-(m-tolylamino)pyrimidin-2-ylamino)phenyl)but-2-enamide]	reaction was complete; also recorded: covalent modification of TEC kinase at Cys449	–	–
irreversible	–	C=CC(=O)Nc1cccc(Nc2nc(Nc3ccccc3)ncc2C)c1 [Compound I-7, N-(3-(5-methyl-2-(phenylamino)pyrimidin-4-ylamino)phenyl) acrylamide]	reaction was complete; also recorded: covalent modification of TEC kinase at Cys449	reaction was not entirely complete; also recorded: covalent modification of JAK-3 kinase at Cys909	positive shift of centroid mass of BTK ([4]; intact BTK incubated 1 hr with 10× fold excess of compound): about 371.1 Da; covalent modification of BTK by mass spectrometry ([4]; intact BTK, 1 hr, 10× fold excess of compound): complete modification; also recorded: covalent modification of BTK; concentration at which >50% of BTK is occupied [5]: A (greater than 1 nM); concentration at which >90% of BTK is occupied [5]: B (greater than 10 nM); time BTK protein remains occupied after compound removal [6]: over 8 hours
–	covalent modification of ErbB4	Cc1cnc(Nc2cccc(S(N)(=O)=O)c2)nc1Nc1ccc2c(c1)CCN(C(=O)CCl)C2 [Compound I-11, 3-(4-(2-(2-chloroacetyl)-1,2,3,4-tetrahydroisoquinolin-6-ylamino)-5-methylpyrimidin-2-ylamino)benzenesulfonamide]	–	measurable modification	–
–	–	C=CC(=O)Nc1cccc(Oc2nc(Nc3ccc(OC)nc3)ncc2C(=O)NC2CC2)c1 [Compound I-176, 4-(3-acrylamidophenoxy)-2-(6-methoxypyridin-3-ylamino)-pyrimidine-5-carboxylic acid cyclopropylamide]	–	–	IC50 [8]: 100 to 1000 nM; IC50 [9]: 10 to 100 nM; IC50 [10]: < 10 nM; IC50 ([11]; Omnia assay, [BTK]=5 nM, read-out: BTK Inhibition): < 10 nM
–	–	CCC(=O)Nc1cccc(Nc2nc(Nc3ccccc3)ncc2C)c1 [I^R-7, N-(3-(5-methyl-2-(phenylamino)pyrimidin-4-ylamino)phenyl) propionamide]	–	–	biochemical activity against BTK [11]: biochemically inactive against BTK
